The text below walks through data of US20090215778A1, “Alpha-substituted Arylmethyl Piperazine Pyrazolo [1,5-alpha]Pyrimidine Amide Derivatives” (priority 2007, published 2009).

Experiment [1] has as its target T1, HIV Env six-helix bundle (6HB) structure (Human immunodeficiency virus type 1 group M subtype B, UniProt P04579).
T1 construct: H9 cells chronically infected with HIV-1 (H9/HIV-1RF); endogenous in cells; host or cells: H9 cells chronically infected with HIV-1 strain RF (Env is made from the virus in the infected cells, not by transfection)
Nature of the experiment: Six-helix bundle (6HB) assay. Type of experiment: cell-based, HIV-1 (strain RF). The essentials: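 Flow cytometry measured binding of a six-helix-bundle-specific polyclonal antibody, detected with PE-labelled secondary at 4 °C for 45 min, on H9/HIV-1 RF chronically infected cells. Compound was given 30 min at 37 °C before 1 μg/mL soluble CD4 induction for 1 h. Inhibition appears as reduced fluorescence.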

Experiment [2] concerns HIV-1, NL4-3 strain. Nature of the experiment: Virus infection assay (virus entry and single-cycle infection). It is filed as cell-based. Particulars: Human immunodeficiency virus 1, NL43, TZM-b1, read-out: Nl4. In a few lines: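 Single-cycle entry/infection read-out: β-galactosidase chemiluminescence measured one day after infection. Compounds were present during a 4 h, 37 °C exposure of TZM-b1 reporter cells to NL4-3 virus at MOI 0.01 plus DEAE-dextran (80 μg/mL final), followed by addition of complete medium.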

T1 sequence (P04579 32-519): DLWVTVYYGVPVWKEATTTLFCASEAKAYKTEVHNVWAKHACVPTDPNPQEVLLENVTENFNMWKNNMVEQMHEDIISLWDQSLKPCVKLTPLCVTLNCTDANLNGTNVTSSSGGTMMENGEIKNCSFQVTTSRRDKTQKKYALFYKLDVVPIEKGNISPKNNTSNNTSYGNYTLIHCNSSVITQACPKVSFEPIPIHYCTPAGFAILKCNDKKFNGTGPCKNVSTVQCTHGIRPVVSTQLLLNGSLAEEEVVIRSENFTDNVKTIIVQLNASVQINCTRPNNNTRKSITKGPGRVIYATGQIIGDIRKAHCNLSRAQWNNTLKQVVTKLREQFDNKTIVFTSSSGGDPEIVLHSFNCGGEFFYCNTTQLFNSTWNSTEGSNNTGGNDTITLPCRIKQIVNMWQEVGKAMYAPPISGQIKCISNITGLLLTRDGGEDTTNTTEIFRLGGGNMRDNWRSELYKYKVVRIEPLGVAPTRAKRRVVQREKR
T1 sequence (P04579 520-865): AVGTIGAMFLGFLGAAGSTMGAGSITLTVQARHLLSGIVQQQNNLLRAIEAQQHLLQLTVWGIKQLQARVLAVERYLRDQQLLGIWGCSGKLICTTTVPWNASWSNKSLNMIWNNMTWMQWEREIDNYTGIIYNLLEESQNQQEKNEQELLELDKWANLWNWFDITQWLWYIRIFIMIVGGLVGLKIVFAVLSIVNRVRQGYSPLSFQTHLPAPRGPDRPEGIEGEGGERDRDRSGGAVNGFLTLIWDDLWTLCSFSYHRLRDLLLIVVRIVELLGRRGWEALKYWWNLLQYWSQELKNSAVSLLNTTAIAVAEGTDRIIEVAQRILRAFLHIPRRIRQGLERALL

As to `COc1ccc(-c2nc3c(C(=O)N4CCN([C@@H](CO)c5ccccc5F)C[C@H]4C)cnn3c(C(F)(F)F)c2C)cc1` [methanone, [(2R)-4-[(1R)-1-(2-fluorophenyl)-2-hydroxyethyl]-2-methyl-1-piperazinyl][5-(4-methoxyphenyl)-6-methyl-7-(trifluoromethyl)pyrazolo[1,5-α]pyrimidin-3-yl]-], the IC50 in experiment [1] and in experiment [2] was below 1000 nM each time.
On to `COc1ccc(-c2nc3c(C(=O)N4CCN([C@H](CO)c5ccco5)C[C@H]4C)cnn3c(C(F)(F)F)c2C)cc1` [methanone, [(2R)-4-[(1R)-1-(2-furanyl)-2-hydroxyethyl]-2-methyl-1-piperazinyl][5-(4-methoxyphenyl)-6-methyl-7-(trifluoromethyl)pyrazolo[1,5-α]pyrimidin-3-yl]-], for which the IC50 in experiment [1] and in experiment [2] was below 1000 nM each time.
For `COc1ccc(-c2nc3c(C(=O)N4CCN([C@H](C)c5ccc(F)c(F)c5)C[C@H]4C)cnn3c(C(F)(F)F)c2C)cc1` [methanone, [(2R)-4-[(1R)-1-(3,4-difluorophenyl)ethyl]-2-methyl-1-piperazinyl][5-(4-methoxyphenyl)-6-methyl-7-(trifluoromethyl)pyrazolo[1,5-α]pyrimidin-3-yl]-], the IC50 in experiment [1] and in experiment [2] was below 1000 nM each time.
On to `COc1ccc(-c2nc3c(C(=O)N4CCN([C@H](C)c5cc(F)cc(F)c5)C[C@H]4C)cnn3c(C(F)(F)F)c2C)cc1` [methanone, [(2R)-4-[(1R)-1-(3,5-difluorophenyl)ethyl]-2-methyl-1-piperazinyl][5-(4-methoxyphenyl)-6-methyl-7-(trifluoromethyl)pyrazolo[1,5-α]pyrimidin-3-yl]-], for which the IC50 in experiment [1] and in experiment [2] was below 1000 nM throughout.
For the compound `COc1ccc(-c2nc3c(C(=O)N4CCN([C@@H](CO)c5c(C)noc5C)C[C@H]4C)cnn3c(C(F)(F)F)c2C)cc1` [methanone, [(2R)-4-[(1R)-1-(3,5-dimethyl-4-isoxazolyl)-2-hydroxyethyl]-2-methyl-1-piperazinyl][5-(4-methoxyphenyl)-6-methyl-7-(trifluoromethyl)pyrazolo[1,5-α]pyrimidin-3-yl]-], the IC50 in experiment [1] and in experiment [2] was 1100 to 10000 nM throughout.
`COc1ccc(-c2nc3c(C(=O)N4CCN([C@H](C)c5ccc(F)cc5)C[C@H]4C)cnn3c(C(F)(F)F)c2C)cc1` [methanone, [(2R)-4-[(1R)-1-(4-fluorophenyl)ethyl]-2-methyl-1-piperazinyl][5-(4-methoxyphenyl)-6-methyl-7-(trifluoromethyl)pyrazolo[1,5-α]pyrimidin-3-yl]-]: the IC50 in experiment [1] and in experiment [2] was below 1000 nM each time.
For the compound `COc1ccc(-c2nc3c(C(=O)N4CCN([C@H](CO)c5ccc(Cl)s5)C[C@H]4C)cnn3c(C(F)(F)F)c2C)cc1` [methanone, [(2R)-4-[(1R)-1-(5-chloro-2-thienyl)-2-hydroxyethyl]-2-methyl-1-piperazinyl][5-(4-methoxyphenyl)-6-methyl-7-(trifluoromethyl)pyrazolo[1,5-α]pyrimidin-3-yl]-], the IC50 in experiment [1] and in experiment [2] was below 1000 nM throughout.
`COc1ccc(-c2nc3c(C(=O)N4CCN([C@@H](CO)c5cccnc5OC)C[C@H]4C)cnn3c(C(F)(F)F)c2C)cc1` [methanone, [(2R)-4-[(1R)-2-hydroxy-1-(2-methoxy-3-pyridinyl)ethyl]-2-methyl-1-piperazinyl][5-(4-methoxyphenyl)-6-methyl-7-(trifluoromethyl)pyrazolo[1,5-α]pyrimidin-3-yl]-]: the IC50 in experiment [1] and in experiment [2] was below 1000 nM throughout.
For `COc1ccc(-c2nc3c(C(=O)N4CCN([C@@H](CO)c5ccccc5OC)C[C@H]4C)cnn3c(C(F)(F)F)c2C)cc1` [methanone, [(2R)-4-[(1R)-2-hydroxy-1-(2-methoxyphenyl)ethyl]-2-methyl-1-piperazinyl][5-(4-methoxyphenyl)-6-methyl-7-(trifluoromethyl)pyrazolo[1,5-α]pyrimidin-3-yl]-], the IC50 in experiment [1] and in experiment [2] was below 1000 nM in each case.
On to `COc1ccc(-c2nc3c(C(=O)N4CCN([C@@H](CO)c5cccc(OC)c5)C[C@H]4C)cnn3c(C(F)(F)F)c2C)cc1` [methanone, [(2R)-4-[(1R)-2-hydroxy-1-(3-methoxyphenyl)ethyl]-2-methyl-1-piperazinyl][5-(4-methoxyphenyl)-6-methyl-7-(trifluoromethyl)pyrazolo[1,5-α]pyrimidin-3-yl]-], for which the IC50 in experiment [1] and in experiment [2] was below 1000 nM each time.
For the compound `COc1ccc(-c2nc3c(C(=O)N4CCN([C@H](CO)c5cc(C)cs5)C[C@H]4C)cnn3c(C(F)(F)F)c2C)cc1` [methanone, [(2R)-4-[(1R)-2-hydroxy-1-(4-methyl-2-thienyl)ethyl]-2-methyl-1-piperazinyl][5-(4-methoxyphenyl)-6-methyl-7-(trifluoromethyl)pyrazolo[1,5-α]pyrimidin-3-yl]-], the IC50 in experiment [1] and in experiment [2] was below 1000 nM each time.
Consider `COc1ccc(-c2nc3c(C(=O)N4CCN([C@@H](CO)c5cscc5C)C[C@H]4C)cnn3c(C(F)(F)F)c2C)cc1` [methanone, [(2R)-4-[(1R)-2-hydroxy-1-(4-methyl-3-thienyl)ethyl]-2-methyl-1-piperazinyl][5-(4-methoxyphenyl)-6-methyl-7-(trifluoromethyl)pyrazolo[1,5-α]pyrimidin-3-yl]-], for which the IC50 in experiment [1] and in experiment [2] was below 1000 nM throughout.
Consider `COc1ccc(-c2nc3c(C(=O)N4CCN([C@H](CO)c5ccc(C)s5)C[C@H]4C)cnn3c(C(F)(F)F)c2C)cc1` [methanone, [(2R)-4-[(1R)-2-hydroxy-1-(5-methyl-2-thienyl)ethyl]-2-methyl-1-piperazinyl][5-(4-methoxyphenyl)-6-methyl-7-(trifluoromethyl)pyrazolo[1,5-α]pyrimidin-3-yl]-], for which the IC50 in experiment [1] and in experiment [2] was below 1000 nM each time.
On to `COc1ccc(-c2nc3c(C(=O)N4CCN([C@@H](CO)c5ccccc5)C[C@H]4C)cnn3c(C(F)(F)F)c2C)cn1` [methanone, [(2R)-4-[(1R)-2-hydroxy-1-phenylethyl]-2-methyl-1-piperazinyl][5-(6-methoxy-3-pyridinyl)-6-methyl-7-(trifluoromethyl)pyrazolo[1,5-α]pyrimidin-3-yl]-], for which the IC50 in experiment [1] and in experiment [2] was below 1000 nM each time.
`COc1ccc(-c2nc3c(C(=O)N4CCN([C@@H](CO)c5ccccc5)C[C@H]4C)cnn3c(C(F)(F)F)c2OC)cc1` [methanone, [(2R)-4-[(1R)-2-hydroxy-1-phenylethyl]-2-methyl-1-piperazinyl][6-methoxy-5-(4-methoxyphenyl)-7-(trifluoromethyl)pyrazolo[1,5-α]pyrimidin-3-yl]-]: the IC50 in experiment [1] and in experiment [2] was below 1000 nM throughout.
As to `COC[C@@H](c1ccccc1)N1CCN(C(=O)c2cnn3c(C(F)(F)F)c(C)c(-c4ccc(OC)cc4)nc23)[C@H](C)C1` [methanone, [(2R)-4-[(1R)-2-methoxy-1-phenylethyl]-2-methyl-1-piperazinyl][5-(4-methoxyphenyl)-6-methyl-7-(trifluoromethyl)pyrazolo[1,5-α]pyrimidin-3-yl]-], the IC50 in experiment [1] and in experiment [2] was below 1000 nM throughout.
As for `COc1ccc(-c2nc3c(C(=O)N4CCN([C@@H](C)c5oc(C)nc5C)C[C@H]4C)cnn3c(C(F)(F)F)c2C)cc1` [methanone, [(2R)-4-[(1S)-1-(2,4-dimethyl-5-oxazolyl)ethyl]-2-methyl-1-piperazinyl][5-(4-methoxyphenyl)-6-methyl-7-(trifluoromethyl)pyrazolo[1,5-α]pyrimidin-3-yl]-], the IC50 in experiment [1] and in experiment [2] was 1100 to 10000 nM throughout.
For the compound `COc1ccc(-c2nc3c(C(=O)N4CCN([C@H](CO)c5cccc(OC)c5F)C[C@H]4C)cnn3c(C(F)(F)F)c2C)cc1` [methanone, [(2R)-4-[(1S)-1-(2-fluoro-3-methoxyphenyl)-2-hydroxyethyl]-2-methyl-1-piperazinyl][5-(4-methoxyphenyl)-6-methyl-7-(trifluoromethyl)pyrazolo[1,5-α]pyrimidin-3-yl]-], the IC50 in experiment [1] and in experiment [2] was below 1000 nM in each case.
Take `COc1ccc(-c2nc3c(C(=O)N4CCN([C@H](CO)c5ccccc5F)C[C@H]4C)cnn3c(C(F)(F)F)c2C)cc1` [methanone, [(2R)-4-[(1S)-1-(2-fluorophenyl)-2-hydroxyethyl]-2-methyl-1-piperazinyl][5-(4-methoxyphenyl)-6-methyl-7-(trifluoromethyl)pyrazolo[1,5-α]pyrimidin-3-yl]-]: the IC50 in experiment [1] and in experiment [2] was below 1000 nM in each case.
Take `COc1ccc(-c2nc3c(C(=O)N4CCN([C@@H](CO)c5ccco5)C[C@H]4C)cnn3c(C(F)(F)F)c2C)cc1` [methanone, [(2R)-4-[(1S)-1-(2-furanyl)-2-hydroxyethyl]-2-methyl-1-piperazinyl][5-(4-methoxyphenyl)-6-methyl-7-(trifluoromethyl)pyrazolo[1,5-α]pyrimidin-3-yl]-]: the IC50 in experiment [1] and in experiment [2] was below 1000 nM in each case.
In the case of `COc1ccc(-c2nc3c(C(=O)N4CCN([C@@H](C)c5ccco5)C[C@H]4C)cnn3c(C(F)(F)F)c2C)cc1` [methanone, [(2R)-4-[(1S)-1-(2-furanyl)ethyl]-2-methyl-1-piperazinyl][5-(4-methoxyphenyl)-6-methyl-7-(trifluoromethyl)pyrazolo[1,5-α]pyrimidin-3-yl]-], the IC50 in experiment [1] and in experiment [2] was below 1000 nM in each case.
